Positions of bridges follow the written chain, without caps; N, C: chain ends. Non-standard residues stand in square brackets, D forms with d. Residues, ends and D or L forms follow the SMILES beside them. Trp(1-CH2COOH) = N[C@@H](Cc1cn(CC(=O)O)c2ccccc12)C(=O)O; Hyp = O=C(O)[C@@H]1C[C@@H](O)CN1; NMeNle = CCCC[C@H](NC)C(=O)O; NMeA = CN[C@@H](C)C(=O)O; Pra = C#CC[C@H](N)C(=O)O; Dab = NCC[C@H](N)C(=O)O; Dap = NC[C@H](N)C(=O)O
molecular target: T1, PD-L1 (Homo sapiens, UniProt Q9NZQ7); experiment: PD-1/PD-L1 Homogenous Time-Resolved Fluorescence (HTRF) binding assay (PD-1-Ig/PD-L1-His); settings: inhibition of PD-1-Ig binding to PD-L1-TVMV-His; value given as range class; read-out: HTRF IC50
T1 construct: hPDL1(19-239)-TVMV-His; made in house; host or cells: HEK293T
Outline: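 Inhibitors pre-incubated 15 min with PD-L1-His (10 nM final), then PD-1-Ig (20 nM final) added for 15 min in dPBS/0.1% BSA/0.05% Tween-20. Eu-cryptate anti-Ig (1 nM) and APC anti-His (20 nM) added, 30 min equilibration, 665/620 nm HTRF ratio read.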

T1 sequence (Q9NZQ7 with tags, fused parts or gaps): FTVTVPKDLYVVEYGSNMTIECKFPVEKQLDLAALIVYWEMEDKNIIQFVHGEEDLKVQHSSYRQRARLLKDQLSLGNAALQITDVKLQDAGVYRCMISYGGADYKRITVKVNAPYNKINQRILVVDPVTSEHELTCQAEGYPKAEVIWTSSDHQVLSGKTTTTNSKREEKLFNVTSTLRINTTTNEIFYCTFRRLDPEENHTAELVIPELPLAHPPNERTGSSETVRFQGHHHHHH

| SMILES | IC50 |
| --- | --- |
| C#CC[C@H](NC(=O)CNC(=O)[C@@H]1CSCC(=O)N[C@@H](Cc2ccc(O)cc2)C(=O)N(C)[C@@H](C)C(=O)N[C@@H](CC(N)=O)C(=O)N2CCC[C@H]2C(=O)N[C@@H](CN)C(=O)N[C@@H](CC(C)C)C(=O)N2C[C@H](O)C[C@H]2C(=O)N[C@@H](Cc2c[nH]c3ccccc23)C(=O)N[C@@H](CCN)C(=O)N[C@@H](Cc2cn(CC(=O)O)c3ccccc23)C(=O)N(C)[C@@H](CCCC)C(=O)N(C)[C@@H](CCCC)C(=O)N[C@@H](CC(C)C)C(=O)N1)C(=O)O [INT 1300V] ({CH2CO}-Y[NMeA]NP[Dap]L[Hyp]W[Dab][Trp(1-CH2COOH)][NMeNle][NMeNle]LCG[Pra]-OH; thioether N-14) | 10 to 99 nM |
| C#CC[C@H](NC(=O)CNC(=O)[C@@H]1CSCC(=O)N[C@@H](Cc2ccc(O)cc2)C(=O)N(C)[C@@H](C)C(=O)N[C@@H](CC(N)=O)C(=O)N2CCC[C@H]2C(=O)N[C@@H](CN)C(=O)N[C@@H](CC(C)C)C(=O)N2C[C@H](O)C[C@H]2C(=O)N[C@@H](Cc2c[nH]c3ccccc23)C(=O)N[C@@H](CCN)C(=O)N[C@@H](Cc2cn(CC(=O)O)c3ccccc23)C(=O)N(C)[C@@H](CCCC)C(=O)N(C)[C@@H](CCCC)C(=O)N[C@@H](CC(C)C)C(=O)N1)C(N)=O [INT 1300W] ({CH2CO}-Y[NMeA]NP[Dap]L[Hyp]W[Dab][Trp(1-CH2COOH)][NMeNle][NMeNle]LCG[Pra]-NH2; thioether N-14) | 10 to 99 nM |
| C#CC[C@H](NC(=O)CNC(=O)[C@@H]1CSCC(=O)N[C@@H](Cc2ccc(O)cc2)C(=O)N(C)[C@@H](C)C(=O)N[C@@H](CC(N)=O)C(=O)N2CCC[C@H]2C(=O)N[C@@H](CN)C(=O)N[C@@H](CC(C)C)C(=O)N2C[C@H](O)C[C@H]2C(=O)N[C@@H](Cc2c[nH]c3ccccc23)C(=O)N[C@@H](CO)C(=O)N[C@@H](Cc2cn(CC(=O)O)c3ccccc23)C(=O)N(C)[C@@H](CCCC)C(=O)N(C)[C@@H](CCCC)C(=O)N[C@@H](CC(C)C)C(=O)N1)C(N)=O [INT 1300X] ({CH2CO}-Y[NMeA]NP[Dap]L[Hyp]WS[Trp(1-CH2COOH)][NMeNle][NMeNle]LCG[Pra]-NH2; thioether N-14) | 10 to 99 nM |

Continued, values first:

| IC50 | SMILES |
| --- | --- |
| 0.3 to 9.9 nM | C#CC[C@H](NC(=O)CNC(=O)[C@@H]1CSCC(=O)N[C@@H](Cc2ccc(O)cc2)C(=O)N(C)[C@@H](C)C(=O)N[C@@H](CC(=O)O)C(=O)N2CCC[C@H]2C(=O)N[C@@H](Cc2c[nH]cn2)C(=O)N[C@@H](CCCCN)C(=O)N2C[C@H](O)C[C@H]2C(=O)N[C@@H](Cc2c[nH]c3ccccc23)C(=O)N[C@@H](CCCCN)C(=O)N[C@@H](Cc2cn(CC(=O)O)c3ccccc23)C(=O)N(C)[C@@H](CCCC)C(=O)N(C)[C@@H](CCCC)C(=O)N[C@@H](CCC(=O)O)C(=O)N1)C(=O)O [INT 1300Y] ({CH2CO}-Y[NMeA]DPHK[Hyp]WK[Trp(1-CH2COOH)][NMeNle][NMeNle]ECG[Pra]-OH; thioether N-14) |
| 0.3 to 9.9 nM | C#CC[C@H](NC(=O)CNC(=O)[C@@H]1CSCC(=O)N[C@@H](Cc2ccc(O)cc2)C(=O)N(C)[C@@H](C)C(=O)N[C@@H](CC(=O)O)C(=O)N2CCC[C@H]2C(=O)N[C@@H](Cc2c[nH]cn2)C(=O)N[C@@H](CCCCN)C(=O)N2C[C@H](O)C[C@H]2C(=O)N[C@@H](Cc2c[nH]c3ccccc23)C(=O)N[C@@H](CCCCN)C(=O)N[C@@H](Cc2c[nH]c3ccccc23)C(=O)N(C)[C@@H](CCCC)C(=O)N(C)[C@@H](CCCC)C(=O)N[C@@H](CCC(=O)O)C(=O)N1)C(=O)NCC(N)=O [INT 1400A] ({CH2CO}-Y[NMeA]DPHK[Hyp]WKW[NMeNle][NMeNle]ECG[Pra]G-NH2; thioether N-14) |
| 0.3 to 9.9 nM | C#CC[C@H](NC(=O)CNC(=O)[C@@H]1CSCC(=O)N[C@@H](Cc2ccc(O)cc2)C(=O)N(C)[C@@H](C)C(=O)N[C@@H](CC(=O)O)C(=O)N2CCC[C@H]2C(=O)N[C@@H](Cc2c[nH]cn2)C(=O)N[C@@H](CCCCN)C(=O)N2C[C@H](O)C[C@H]2C(=O)N[C@@H](Cc2c[nH]c3ccccc23)C(=O)N[C@@H](CCCCN)C(=O)N[C@@H](Cc2c[nH]c3ccccc23)C(=O)N(C)[C@@H](CCCC)C(=O)N(C)[C@@H](CCCC)C(=O)N[C@@H](CCC(=O)O)C(=O)N1)C(=O)N[C@@H](CC(=O)O)C(N)=O [INT 1400B] ({CH2CO}-Y[NMeA]DPHK[Hyp]WKW[NMeNle][NMeNle]ECG[Pra]D-NH2; thioether N-14) |
